Assay [1] concerns 22Rv1 cells transfected with AR-V7 or AR-FL. Nature of the assay: Proliferation of 22Rv1 cells transfected with AR-V7 and/or AR-FL. In kind it is cell-based, human. As to conditions: 1 μM. The text has this: Transient Transfections. One μg of a plasmid containing cDNA of AR-V7 or AR-FL is transfected into indicated the CaP cell lines on 6-well plates. Three μl of lipofectamine 3000 is used for each transfection.

Assay [2] concerns Enzalutamide-resistant CaP tumor xenografts. Nature of the assay: Enzalutamide-resistant CaP tumor xenograft, systemic (IP or oral) dosing. In kind it is in vivo, mice. As to conditions: four weeks, with enzalutamide, control 2200 mm^3. Here is the method: In Vivo Study. To explore the therapeutic potential of Test Compound, 22Rv1, 22Rv1-Enz^R, VCaP, and VCaP-Enz^R are injected into nu/nu immunodeficient mice. When the resulting tumors reached an average size of 3 mm in diameter, all animals are surgically castrated via bilateral orchiectomy and divided into four groups of five mice each. For anesthesia, 3% isoflurane gas inhalation is used. Tumor size was measured using calipers and tumor volume was calculated using the formula: tumor volume=length×width^2[…].
Mice are then treated daily with Test Compound with or without enzalutamide via the indicated route (intratumoral, intraperitoneal, or oral) for five to six weeks. At the end of the study, all animals are sacrificed and tumors are harvested and analyzed. Statistical significance is calculated using the Student's t-test for paired comparisons of experimental groups and, where appropriate, by Wilcoxon rank sum test, and by 2-way ANOVA. In vitro experiments are repeated a minimum of three times.
To test whether the Compound is active systemically, an identical study is carried out as above except for delivering the Compound intraperitoneally (IP) or orally for four weeks. Enzalutamide-resistant CaP tumor xenografts are established in twelve mice and three each are assigned to the following four groups: control IP (vehicle), control oral (vehicle), 8.3 mg/kg IP, and 8.3 mg/kg oral. […]

In assay [3] the target is T1, AR-V7 (Homo sapiens, UniProt P10275).
T1 sequence (P10275 1-644 isoform P10275-3): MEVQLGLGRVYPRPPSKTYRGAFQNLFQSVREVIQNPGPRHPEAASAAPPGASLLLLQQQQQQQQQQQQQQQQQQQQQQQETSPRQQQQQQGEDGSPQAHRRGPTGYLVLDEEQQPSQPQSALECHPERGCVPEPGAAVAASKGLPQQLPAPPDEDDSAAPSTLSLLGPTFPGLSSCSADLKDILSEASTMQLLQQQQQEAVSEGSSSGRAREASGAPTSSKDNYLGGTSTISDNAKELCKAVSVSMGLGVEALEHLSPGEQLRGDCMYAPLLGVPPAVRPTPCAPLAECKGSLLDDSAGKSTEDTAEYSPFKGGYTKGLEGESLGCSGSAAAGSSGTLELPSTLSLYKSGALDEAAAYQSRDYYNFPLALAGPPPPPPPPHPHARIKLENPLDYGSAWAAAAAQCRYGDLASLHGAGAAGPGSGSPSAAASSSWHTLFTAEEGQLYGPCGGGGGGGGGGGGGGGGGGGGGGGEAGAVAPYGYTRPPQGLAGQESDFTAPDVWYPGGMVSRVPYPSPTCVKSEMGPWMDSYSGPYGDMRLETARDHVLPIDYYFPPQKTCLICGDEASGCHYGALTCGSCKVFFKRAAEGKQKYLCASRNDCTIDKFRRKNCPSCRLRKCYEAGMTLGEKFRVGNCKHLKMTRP
Nature of the assay: Immunoblot of AR-V7 polyubiquitination in 22Rv1 pretreated with MG132. In kind it is cell-based. More on the design: endogenous in cells; host or cells: 22Rv1. The settings on record: 22Rv1 pretreated with MG132 two hours; compound 1 μM. The procedure: Immunoblot Analysis. CaP cells are collected and lysed with the lysis buffer (20 mM Tris-HCl (pH 7.5), 150 mM NaCl, 1 mM Na2EDTA, 1 mM EGTA, 1% Triton, 2.5 mM sodium pyrophosphate, 1 mM beta-glycerophosphate, 1 mM Na3VO4, and 1 μg/ml leupeptin) containing 1 mM phenylmethylsulfonyl fluoride (PMSF). Cell lysates are then centrifuged and protein in the supernatant is quantified. After separating 25-50 μg of protein using SDS-PAGE, samples are incubated with AR-V7, GR, PR, ERα, AR-FL, ubiquitin, or β-actin antibodies. For AR-V7, AR-FL, PR, GR, and ERα immunoblots, primary antibody is diluted 1:1000 in 5% skim milk. For the β-actin immunoblot, 1:10000 diluted primary antibody is used. All membranes are incubated overnight at 4° C. Following the incubation with appropriate secondary antibody, immunoblots are analyzed using SuperSignal West Femto Maximum Sensitivity Substrate (ThermoFisher).
To determine the ubiquitination status of AR proteins, 22Rv1 is pretreated with MG132 for two hours prior to adding Compound of Example 16 (at 1 μM).
Background: In western blotting, separated proteins are transferred to a membrane and probed.

SMILES strings stand for the structures.

Take `Cc1ncsc1-c1ccc([C@H](C)NC(=O)[C@@H]2C[C@@H](O)CN2C(=O)[C@@H](NC(=O)CCCCNC(=O)COc2c(-c3csc(N4CCOCC4)n3)ccc(F)c2F)C(C)(C)C)cc1` [Example 16, (2S,4R)-1-((S)-2-(5-(2-(2,3-difluoro-6-(2-morpholinothiazol-4-yl)phenoxy)acetamido)pentanamido)-3,3-dimethylbutanoyl)-4-hydroxy-N-((S)-1-(4-(4-methylthiazol-5-yl)phenyl)ethyl)pyrrolidine-2-carboxamide]: the “inhibitory effect after transfection of both AR-V7 and AR-FL into 22Rv1 cells” value in assay [1] (both transfected) was “completely abrogated”. In addition, the “inhibitory effect after transfecting AR-V7 or AR-FL into 22Rv1 cells” value in assay [1] (single transfection) is “partial resistance”. Besides, the results for the tumor size entry in assay [2] (8.3 mg/kg IP) and in assay [2] (8.3 mg/kg oral (PO)) were “approximately 1000 mm^3” and “approximately 700 mm^3”, respectively. Also, in assay [3], the “start of polyubiquitination of AR-V7 after treatment” value was found to be 6 h.

The record behind these values is patent US20230132823A1, “BI-FUNCTIONAL COMPOUNDS AND METHODS FOR TARGETED UBIQUITINATION OF ANDROGEN RECEPTOR” (MONTELINO THERAPEUTICS, INC., priority 2020, published 2023).
